Results from patent US9023821B2, “Use of MicroRNA for treating diseases associated with a dysfunction of the cilia in multiciliated epithelial cells” (Centre National de la Recherche Scientifique, priority 2009, dated 2015).

Experiments:
[1] = system: basal cells and pyramidal cells of the airway epithelium; assay: miRNA expression in sorted basal cells versus pyramidal cells (ciliated + secretory), HTS and Agilent chips; parameters: species or system human; conditions: for Modulation of expression of the miRNAs in pyramidal cells (323(−)) relative to basal cells 323(+): HTS and Agilent chips; for Intensity of the level of expression in log2 in pyramidal cells (323(−)): pyramidal cells (ciliated + secretory)
Procedure, shortened: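 Nasal polyp or concha epithelial cells from 3 donors FACS-sorted into CD151+/tissue factor+ basal cells and CD151−/TF− pyramidal (ciliated plus mucus-secreting) cells, excluding dead (DAPI) cells and doublets. miRNA profiles from total RNA obtained by Agilent chips or high-throughput sequencing.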

[2] = system: human airway epithelial cells (HAECs); assay: Agilent miRNA chips, miRNA expression at four stages of differentiation of HAECs; conditions: for Modulation (ratio of the level of intensity of expression in log2 in two stages of differentiation) measured with the Agilent chips, D7 − D0 / Modulation (ratio of the level of intensity of expression in log2 in two stages of differentiation) measured with the Agilent chips, FC − D7 / Modulation (ratio of the level of intensity of expression in log2 in two stages of differentiation) measured with the Agilent chips, WD − D0 / Modulation (ratio of the level of intensity of expression in log2 in two stages of differentiation) measured with the Agilent chips, WD − FC / Level of intensity of expression in log2 measured with the Agilent chips, D0 / Level of intensity of expression in log2 measured with the Agilent chips, D7 / Level of intensity of expression in log2 measured with the Agilent chips, FC / Level of intensity of expression in log2 measured with the Agilent chips, WD: Table VI; for Modulation (ratio of the level of intensity of expression in log2 at two stages of differentiation), FC − D7 / Modulation (ratio of the level of intensity of expression in log2 at two stages of differentiation), WD − FC: Agilent miRNA chips, Table V; for Level of intensity of expression in log2 measured with the Agilent chips, D0: stage D0; for Level of intensity of expression in log2 measured with the Agilent chips, D7: stage D7; for Level of intensity of expression in log2 measured with the Agilent chips, FC: stage FC; for Level of intensity of expression in log2 measured with the Agilent chips, WD: stage WD
Procedure, shortened: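 To benchmark sequencing, the microRNAome was also profiled by hybridizing labelled RNA from identical patient samples to v2 arrays with miRBase v.12.0 human content (866 miRNAs) and 89 viral miRNAs.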

[3] = system: human airway epithelial cells (HAECs); assay: High-throughput sequencing (HTS) of miRNAs at four stages of differentiation of HAECs; conditions: for Modulation (ratio of the level of intensity of expression in log2 in two stages of differentiation) measured by high-throughput sequencing, D7 − D0 / Modulation (ratio of the level of intensity of expression in log2 in two stages of differentiation) measured by high-throughput sequencing, FC − D7 / Modulation (ratio of the level of intensity of expression in log2 in two stages of differentiation) measured by high-throughput sequencing, WD − D0 / Modulation (ratio of the level of intensity of expression in log2 in two stages of differentiation) measured by high-throughput sequencing, WD − FC / Level of intensity of expression in log2 measured by high-throughput sequencing, D0 / Level of intensity of expression in log2 measured by high-throughput sequencing, D7 / Level of intensity of expression in log2 measured by high-throughput sequencing, FC / Level of intensity of expression in log2 measured by high-throughput sequencing, WD: Table VI; for Level of intensity of expression in log2 At the differentiated stage (WD) measured in HTS: healthy human airway epithelial tissue; for Level of intensity of expression in log2 measured by high-throughput sequencing, D0: stage D0; for Level of intensity of expression in log2 measured by high-throughput sequencing, D7: stage D7; for Level of intensity of expression in log2 measured by high-throughput sequencing, FC: stage FC; for Level of intensity of expression in log2 At the differentiated stage (WD) measured in HTS / Level of intensity of expression in log2 measured by high-throughput sequencing, WD: stage WD
Procedure, shortened: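 Total RNA (with small RNAs) from air-liquid-interface HAECs at ALI-D0, D7, first cilia (~14 d) and fully differentiated (~21 d); adaptor-ligated SOLiD small-RNA libraries, RT-PCR, gel-selected ~105-150 bases. Counts normalized to 10^6 sequences as % abundance; linear-model/empirical Bayes; kept >1% abundance, |Log2 Ratio| <0.5, adjusted P <0.05.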

Row | Substance | Modulation of expression of the miRNAs in pyramidal cells (323(−)) relative to basal cells 323(+) [1] | Intensity of the level of expression in log2 in basal cells (323(+)) [1] [log2] | Intensity of the level of expression in log2 in pyramidal cells (323(−)) [1] [log2] | Modulation (ratio of the level of intensity of expression in log2 in two stages of differentiation) measured with the Agilent chips, D7 − D0 [2] [log2] | Modulation (ratio of the level of intensity of expression in log2 at two stages of differentiation), FC − D7 [2] [log2] | Modulation (ratio of the level of intensity of expression in log2 in two stages of differentiation) measured with the Agilent chips, FC − D7 [2] [log2] | Modulation (ratio of the level of intensity of expression in log2 in two stages of differentiation) measured with the Agilent chips, WD − D0 [2] [log2] | Modulation (ratio of the level of intensity of expression in log2 at two stages of differentiation), WD − FC [2] [log2] | Modulation (ratio of the level of intensity of expression in log2 in two stages of differentiation) measured with the Agilent chips, WD − FC [2] [log2] | Level of intensity of expression in log2 measured with the Agilent chips, D0 [2] [log2] | Level of intensity of expression in log2 measured with the Agilent chips, D7 [2] [log2] | Level of intensity of expression in log2 measured with the Agilent chips, FC [2] [log2] | Level of intensity of expression in log2 measured with the Agilent chips, WD [2] [log2] | Modulation (ratio of the level of intensity of expression in log2 in two stages of differentiation) measured by high-throughput sequencing, D7 − D0 [3] [log2] | Modulation (ratio of the level of intensity of expression in log2 in two stages of differentiation) measured by high-throughput sequencing, FC − D7 [3] [log2] | Modulation (ratio of the level of intensity of expression in log2 in two stages of differentiation) measured by high-throughput sequencing, WD − D0 [3] [log2] | Modulation (ratio of the level of intensity of expression in log2 in two stages of differentiation) measured by high-throughput sequencing, WD − FC [3] [log2] | Level of intensity of expression in log2 At the differentiated stage (WD) measured in HTS [3] [log2] | Level of intensity of expression in log2 measured by high-throughput sequencing, D0 [3] [log2] | Level of intensity of expression in log2 measured by high-throughput sequencing, D7 [3] [log2] | further results
1 | hsa-miR-148a: human miRNA, SEQ ID No. 7 (UCAGUGCACUACAGAACUUUGU; expressed or natural sequence; listed as Homo sapiens) | −1.76 | 7.14 | 5.39 | 2.06 | −0.50 | −0.50 | 1.60 | 0.04 | 0.04 | 7.35 | 9.41 | 8.91 | 8.95 | 1.31 | −0.28 | 1.93 | 0.91 | 8.97 | 7.04 | 8.34 | Level of intensity of expression in log2 measured by high-throughput sequencing, FC [3]: 8.06 log2; Level of intensity of expression in log2 measured by high-throughput sequencing, WD [3]: 8.97 log2
2 | hsa-miR-151-5p: human miRNA, SEQ ID No. 8 (UCGAGGAGCUCACAGUCUAGU; expressed or natural sequence; listed as Homo sapiens) | −0.73 | 7.24 | 6.51 | 1.83 | −0.37 | −0.37 | 1.46 | 0.00 | 0.00 | 6.71 | 8.54 | 8.17 | 8.17 | 1.13 | −0.02 | 1.02 | −0.09 | 10.22 | 9.20 | 10.33 | Level of intensity of expression in log2 measured by high-throughput sequencing, FC [3]: 10.31 log2; Level of intensity of expression in log2 measured by high-throughput sequencing, WD [3]: 10.22 log2
3 | hsa-miR-181a: human miRNA, SEQ ID No. 12 (AACAUUCAACGCUGUCGGUGAGU; expressed or natural sequence; listed as Homo sapiens) | −2.29 | 6.88 | 4.59 | 1.41 | −0.84 | −0.84 | 0.20 | −0.37 | −0.37 | 7.05 | 8.47 | 7.62 | 7.25 | 0.00 | 0.00 | 0.00 | 0.00 | 0.01 | 0.01 | 0.01 | Level of intensity of expression in log2 measured by high-throughput sequencing, FC [3]: 0.01 log2; Level of intensity of expression in log2 measured by high-throughput sequencing, WD [3]: 0.01 log2
